Entries after “also recorded” stand apart in the source; their conditions may differ.
What follows are compounds tested on acoustic startle and prepulse inhibition in rats (assay: Startle testing, prepulse inhibition (PPI) in rats). Conditions: rats; 0.5 mg/kg, s.c.
Assay type: in vivo
Source text: (§1) Instruments) were used for rat experiments (details on startle apparatus and measures, see Male Non-Swiss Albino mice and male Sprague-Dawley rats (Harlan Sprague-Dawley) were housed (4 mice/cage; 2 rats/cage) in rooms with temperature and humidity controlled and water and food (Harlan Teklad) freely available. Mice were kept on a 12-hr light:dark cycle, whereas rats were kept on a 12-hr reverse light:dark cycle. For locomotor and observation experiments in mice, plastic 20×20×30 cm activity cages were equipped with photocell beams (AccuScan Instruments). Startle chambers (San Diego Instruments) were used for rat experiments (for details on startle apparatus and measures, see Mansbach et al., (1988) Psychopharmacology 94:507-14).
Rats were tested and groups (n=10) matched for levels of startle reactivity and prepulse inhibition (PPI; see Mansbach et al., (1988) Psychopharmacology 94:507-14). Two days later, test sessions started and consisted of a 5-min acclimation period with a constant background noise (65 dB), followed by 60 presentations of acoustic stimuli to measure acoustic startle responses. The 60 trials consisted of: twenty two 40-ms presentations of a 120 dB broadband pulse, ten 20-ms presentations of each prepulse intensity (68, 71, 77 dB) 100 ms prior to a 40-msec presentation of a 120 dB broadband pulse, and 8 NOSTIM trials in which no stimuli were delivered in order to assess general motor activation in the rats. Thirty min before testing, rats were treated with sterile water (s.c.), risperidone (1.0 mg/kg, i.p.), or AC-90179 (s.c.). Five min later, rats were administered DOI (0.5 mg/kg, s.c.) or 0.9% saline (s.c.). One-week later, rats were administered the same pretreatment drug or vehicle and crossed over to receive the treatment opposite to that they received the previous week. Startle magnitudes and percent PPI for the three prepulse intensities were calculated as described elsewhere (Bakshi, et al., (1994) J. Pharmacol. Exp. Ther. 271:787-94) and ANOVAs with repeated measures performed.

SMILES | effect on PPI
COc1cc(CC(C)N)c(OC)cc1I (stereo not drawn) [DOI, reference compound] | significantly disrupted PPI

Same assay, conditions: rats; 3-way repeated measures ANOVA

SMILES | effect on startle magnitude
Cc1nc2n(c(=O)c1CCN1CCC(c3noc4cc(F)ccc34)CC1)CCCC2 [risperidone] | no effect on startle magnitude

Same assay, conditions: rats; DOI 0.5 mg/kg s.c.; AC-90179 s.c., risperidone 1.0 mg/kg i.p.

SMILES | restoration of PPI in DOI-treated rats
Cc1nc2n(c(=O)c1CCN1CCC(c3noc4cc(F)ccc34)CC1)CCCC2 [risperidone] | effective in restoring PPI in DOI-treated rats; also recorded: significant effects

Same assay, conditions: saline (vehicle)-treated rats; AC-90179 s.c., risperidone 1.0 mg/kg i.p.

SMILES | effect on PPI on its own
Cc1nc2n(c(=O)c1CCN1CCC(c3noc4cc(F)ccc34)CC1)CCCC2 [risperidone] | no effect on PPI by itself

Each compound was assayed on DOI-induced head twitches in mice (assay: Observation for head twitches in DOI-treated mice). Conditions: mice; 2.5 mg/kg, i.p., 15 min; score 0-6.
Assay type: in vivo
Source text: as §1
Mice were treated with 2.5 mg/kg DOI i.p. Five min later, mice were treated with AC-90179 s.c. and placed into activity cages. Ten min later, mice were observed using a repeated sampling technique. […] Each dose combination was tested in a separate group of animals (n=8) and the experimenter was blind to drug conditions. Head twitch scores were averaged followed by analysis of variance (ANOVA) and post-hoc Dunnett's t-test comparisons.
The effect of various compounds on head twitch behavior in mice treated with DOI was observed as described in Example 139. Animals received 0.1-30 mg/kg of the compound indicated via subcutaneous injection. MED indicates the minimum effective dose at which a statistically significant reduction in head twitching score (described above) was observed. MED=minimum effective dose in vivo.

SMILES | average head twitch score
COc1cc(CC(C)N)c(OC)cc1I (stereo not drawn) [DOI, reference compound] | 2.6 (±0.3, S.E.M.)

Same assay, conditions: statistically significant reduction in head twitching score; DOI-treated mice; 0.1-30 mg/kg subcutaneous injection

SMILES | MED (minimum effective dose in vivo)
COc1ccc(CC(=O)N(Cc2ccc(C)cc2)C2CCN(Cc3ccccc3)CC2)cc1.Cl [Compound 26HCH17, N-((4-Methylphenyl)methyl)-N-(1-(phenylmethyl)piperidin-4-yl)-4-methoxyphenylacetamide hydrochloride] | 30 mg/kg
COc1ccc(CC(=O)N(Cc2ccc(C)cc2)C2CCN(CC3CCCCC3)CC2)cc1 [Compound 42ELH45, 2-(4-Methoxyphenyl)-N-(4-methylbenzyl)-N-(1-cyclohexylmethylpiperidin-4-yl)acetamide] | 30 mg/kg
COc1ccc(CC(=O)N(Cc2ccc(C)cc2)C2CCN(C3CCCC3)CC2)cc1 [Compound 42ELH75, 2-(4-Methoxyphenyl)-N-(4-methylbenzyl)-N-(1-cyclopentylpiperidin-4-yl)acetamide] | ≦10 mg/kg
CCN1CCC(N(Cc2ccc(C)cc2)C(=O)Cc2ccc(OC)cc2)CC1 [Compound 42ELH80, 2-(4-Methoxyphenyl)-N-(4-methylbenzyl)-N-(1-ethylpiperidin-4-yl)acetamide] | ≦10 mg/kg
COc1ccc(CC(=O)N(Cc2ccc(Cl)cc2)C2CCN(C(C)C)CC2)cc1 [Compound 42ELH90, 2-(4-Methoxyphenyl)-N-(4-chlorbenzyl)-N-(1-isopropylpiperidin-4-yl)acetamide] | ~10 mg/kg
Cc1ccc(CN(C(=O)Cc2ccc(Cl)cc2)C2CCN(C(C)C)CC2)cc1 [Compound 47AKU-7, 2-(4-Chlorophenyl)-N-(4-methylbenzyl)-N-(1-isopropylpiperidin-4-yl)acetamide] | ≦10 mg/kg
Cc1ccc(CN(C(=O)Cc2ccc(Cl)cc2)C2CCN(C)CC2)cc1 [Compound 47AKU-8, 2-(4-Chlorophenyl)-N-(4-methylbenzyl)-N-(1-methylpiperidin-4-yl)-acetamide] | ≦10 mg/kg
Cc1ccc(CN(C(=O)Cc2ccc(Cl)cc2)C2CCN(C3CCCC3)CC2)cc1 [Compound 47AKU-11, 2-(4-Chlorophenyl)-N-(4-methylbenzyl)-N-(1-cyclopentylpiperidin-4-yl)-acetamide] | ~10 mg/kg
CCN1CCC(N(Cc2ccc(C)cc2)C(=O)Cc2ccc(Cl)cc2)CC1 [Compound 47AKU-12, 2-(4-Chlorophenyl)-N-(4-methylbenzyl)-N-(1-ethylpiperidin-4-yl)acetamide] | ≦10 mg/kg
Cc1ccc(CN(C(=O)Cc2ccccc2)C2CCN(C)CC2)cc1 [Compound 47AKU-13, 2-Phenyl-N-(4-methylbenzyl)-N-(1-methylpiperidin-4-yl)-acetamide] | ≦10 mg/kg
Cc1ccc(CN(C(=O)Cc2ccc(F)cc2)C2CCN(C)CC2)cc1 [Compound 47AKU-14, 2-(4-Flourophenyl)-N-(4-methylbenzyl)-N-(1-methylpiperidin-4-yl)-acetamide] | ≦10 mg/kg
Cc1ccc(CN(C(=O)Cc2ccc(Cl)cc2)C2CCN(CCO)CC2)cc1 [Compound 47AKU-18, 2-(4-Chlorophenyl)-N-(4-methylbenzyl)-N-(1-(2-hydroxyethyl)-piperidin-4-yl)-acetamide] | ≧10 mg/kg
Cc1ccc(CN(C(=O)Cc2ccc(Cl)cc2)C2CCN(C3CCC3)CC2)cc1 [Compound 47AKU-19, 2-(4-Chlorophenyl)-N-(4-methylbenzyl)-N-(1-cyclobutylpiperidin-4-yl)-acetamide] | >10 mg/kg
COc1ccc(CC(=O)N(Cc2ccc(C)cc2)C2CCN(C3CCC3)CC2)cc1 [Compound 47AKU-20, 2-(4-Methoxyphenyl)-N-(4-methylbenzyl)-N-(1-cyclobutylpiperidin-4-yl)acetamide] | ≦10 mg/kg
COc1ccc(CC(=O)N(Cc2ccc(C)cc2)C2CC3CCC(C2)N3C)cc1 (stereo not drawn) [Compound 47AKU-21, 2-(4-Methoxyphenyl)-N-(4-methylbenzyl)-N-(tropin-4-yl)acetamide] | >10 mg/kg
Cc1ccc(CN(C(=O)NCc2ccccc2)C2CCN(C)CC2)cc1 [Compound 47AKU-22, N-(4-Methylbenzyl)-N-(1-methylpiperidin-4-yl)-N′-benzyl-carbamide] | ≦10 mg/kg
CN1CCC(N(CCc2ccccc2)C(=O)NCc2ccccc2)CC1 [Compound 47AKU-25, N-Phenethyl-N-(1-methylpiperidin-4-yl)-N′-benzyl-carbamide] | >10 mg/kg
COc1ccc(CNC(=O)N(Cc2ccc(C)cc2)C2CCN(C)CC2)cc1 [Compound 47AKU-44, N-(4-Methylbenzyl)-N-(1-methylpiperidin-4-yl)-′N′-(4-methoxybenzyl)-carbamide] | ≦10 mg/kg
COc1ccc(CC(=O)N(Cc2ccc(C)cc2)C2CCN(C(C)(C)C)CC2)cc1 [Compound 47AKU-49, 2-(4-Methoxyphenyl)-N-(4-methylbenzyl)-N-(1-t-butylpiperidin-4-yl)-acetamide] | ≦10 mg/kg
CN1CCC(N(Cc2ccc(F)cc2)C(=O)Cc2ccc(F)cc2)CC1 [Compound 50ELH6, 2-(4-Fluorophenyl)-N-(4-fluorobenzyl)-N-(1-methylpiperidin-4-yl)acetamide] | ≦10 mg/kg
COc1ccc(CC(=O)N(CCCc2ccccc2)C2CCN(C)CC2)cc1 [Compound 50ELH65, 2-(4-Methoxyphenyl)-N-(3-phenyl-1-propyl)-N-(1-methylpiperidin-4-yl)acetamide] | ≦10 mg/kg
COc1ccc(CC(=O)N(CCc2ccc(C)cc2)C2CCN(C)CC2)cc1 [Compound 50ELH68] | ≦10 mg/kg
COc1ccc(CC(=O)N(CCc2ccc(F)cc2)C2CCN(C)CC2)cc1 [Compound 50ELH93A, 2-(4-Methoxyphenyl)-N-(2-4-(fluorophenyl)ethyl)-N-(1-methylpiperidin-4-yl)acetamide] | ≦10 mg/kg
CCOc1ccc(CC(=O)N(Cc2ccc(C)cc2)C2CCN(C)CC2)cc1 [Compound 58AKU-4, 2-(4-Ethoxyphenyl)-N-(4-methylbenzyl)-N-(1-methylpiperidin-4-yl)acetamide] | ≦10 mg/kg
CCCCOc1ccc(CC(=O)N(Cc2ccc(C)cc2)C2CCN(C)CC2)cc1 [Compound 58AKU-5, 2-(4-Butoxyphenyl)-N-(4-methylbenzyl)-N-(1-methylpiperidin-4-yl)acetamide] | ≦1 mg/kg
Cc1ccc(CN(C(=O)Cc2ccc(OC(C)C)cc2)C2CCN(C)CC2)cc1 [Compound 58AKU-6, 2-(4-i-Propoxyphenyl)-N-(4-methylbenzyl)-N-(1-methylpiperidin-4-yl)acetamide] | ≦10 mg/kg
CCOc1ccc(CC(=O)N(CCc2ccc(F)cc2)C2CCN(C)CC2)cc1 [Compound 63ELH20, 2-(4-ethoxyphenyl)-N-[2-(4-fluorophenyl)ethyl]-N-(1-methylpiperidin-4-yl)acetamide] | ≦10 mg/kg
CCOc1ccc(CC(=O)N(Cc2ccc(F)cc2)C2CCN(C)CC2)cc1 [Compound 63ELH21, 2-(4-Ethoxyphenyl)-N-(4-fluorobenzyl)-N-(1-methylpiperidin-4-yl)acetamide] | ≦10 mg/kg
